Reference: patent US20240082313A1, “PHARMACEUTICAL COMPOSITIONS AND THEIR METHODS OF USE” (The Trustees of Indiana University, priority 2021, published 2024)

Legend:
[1] = tested on: EO771 mammary tumor cells; test: Tumor selectivity from MTT-based viability (tumor vs non-tumor cells); assay type: cell-based, mouse; details: tumor cells EO
From the text: (§1) Variations in tumor selectivity among the predicted tumor-suppressing proteins. Tumor-suppressing proteins may inhibit the progression of tumor cells but not inhibit the progression of non-tumor cells. Using the MTT-based viability, tumor selectivity was defined as a ratio of (reduction in MTT-based viability of tumor cells) to (reduction in MTT-based viability of non-tumor cells). The tumor selectivity may be above one to remove tumor cells and a larger value may signify a reduction in the inhibition of the growth of non-tumor cells. The tumor selectivity was determined using three tumor cells (4T1.2 mouse mammary tumor cells, EO771 mammary tumor cells, and MDA-MB-231 breast cancer cells) and three non-tumor cells (adipose cells, MLO-A5 osteocytes, and murine MSCs). […] Table 2 provides the tumor selectivity of 4T1.2 Oct4 CM, 4T1.2 c-Myc CM, and 10 tumor-suppressing protein candidates.

[2] = tested on: 4T1.2 mouse mammary tumor cells; test: as above; assay type: cell-based
From the text: as §1

[3] = tested on: MDA-MB-231 breast cancer cells; test: as above; assay type: cell-based, human
From the text: as §1

[4] = tested on: EO771 mammary tumor cells; test: Wound-healing scratch assay; assay type: cell-based, mouse; details: inhibitor applied with iTS CM
Method: Two-dimensional motility assay. A wound-healing scratch motility assay was performed to measure 2-dimensional cell motility. Cells were seeded in 12-well plates, after cell attachment, a plastic pipette tip was used to scratch a gap on the cell layer. Images of the cell-free scratch zone were obtained via an inverted microscope at 0 h, and the areas newly occupied with cells were determined 48 h after scratching. The areas were quantified with Image J (National Institutes of Health, Maryland, USA).
Scratch assay. A wound-healing scratch assay was conducted to evaluate 2-dimensional migratory behavior. Approximately 4×10^5 cells were seeded in 12-well plates. After cell attachment, a plastic pipette tip was used to scratch a gap on the cell layer. After the removal of the floating cells, CM was added. Images of the cell-free scratch zone were collected at 0 h, and the areas newly occupied with cells were determined 24-48 h after scratching. The areas were quantified with IMAGE J™ (National Institutes of Health, Bethesda, MD, USA).

[5] = tested on: EO771 mammary tumor cells; test: TRANSWELL invasion assay; assay type: cell-based, mouse; details: inhibitor applied with iTS CM
Method: Invasion assay. The invasion capacity of cancer cells was determined using a 24-well plate, TRANSWELL® chambers (Thermo Fisher Scientific, Waltham, MA, USA) with […] pore size and MATRIGEL™. Cell invasion was measured in TRANSWELL® chambers with a coating including MATRIGEL™ (100 μg/ml). The cells in 200 μL serum-free DMEM were placed on the upper chamber and 800 μL iTS CM was added in the lower chamber. After 24 h, the cells that had invaded the lower side of the membrane were stained with Crystal Violet. At least five randomly chosen images were taken under a microscope, and the average number of stained cells that represented the relative invasion was determined.

EO771 cells = test: Western blot analysis; assay type: cell-based, mouse
Method: Western blot analysis. Cultured cells were lysed in a radio-immunoprecipitation assay buffer with protease inhibitors (Santa Cruz Biotechnology, Santa Cruz, CA, USA) and phosphatase inhibitors (Calbiochem, Billerica, MA, USA). After cell lysis, proteins were fractionated by 10-15% SDS gels and electro-transferred to polyvinylidene difluoride (“PVDF”) transfer membranes (Millipore, Billerica, MA, USA). After blocking 1 h with a blocking buffer (Bio-Rad), the membrane was incubated overnight with primary antibodies and then with secondary antibodies conjugated with horseradish peroxidase for 45 min (Cell Signaling, Danvers, MA, USA). Antibodies against β-catenin, cleaved-caspase 3, Runx2, Snail, Enolase-1 (Cell Signaling, Danvers, MA, USA), MMP9 (Santa Cruz, Dallas, TX, USA), TRAIL (Novus, Centennial, CO, USA), p53 (Invitrogen, Carlsbad, CA, USA), and β-actin as a control (Sigma, St. Louis, MO, USA), were employed. The level of proteins was determined using a SUPERSIGNAL™ west femto maximum sensitivity substrate (Thermo Scientific, Waltham, MA, USA), and a luminescent image analyzer (LAS-3000, Fuji Film, Tokyo, Japan) was used to quantify signal intensities.

Molecule | Tumor selectivity ([1]; non-tumor cells A5) | Tumor selectivity ([1]; non-tumor cells Adipose) | Tumor selectivity ([1]; non-tumor cells MSC) | Tumor selectivity ([2]; non-tumor cells A5) | Tumor selectivity ([2]; non-tumor cells Adipose) | Tumor selectivity ([2]; non-tumor cells MSC) | Tumor selectivity ([3]; non-tumor cells A5) | Tumor selectivity ([3]; non-tumor cells Adipose) | Tumor selectivity ([3]; non-tumor cells MSC) | inhibitory effect of β-catenin-overexpressing iTS CM on migration [4] | inhibitory effect of β-catenin-overexpressing iTS CM on invasion [5] | level of cleaved caspase 3 (EO771 cells)
Flna: recombinant protein, tumor-suppressing protein candidate | 1.97 | 1.64 | 1.45 | 1.43 | 1.19 | 1.05 | 1.54 | 1.28 | 1.13 | – | – | –
Myh9: recombinant protein, tumor-suppressing protein candidate | 0.32 | 0.64 | 0.93 | 0.25 | 0.48 | 0.70 | 0.23 | 0.46 | 0.66 | – | – | –
NCCOCCOCCNC(=O)Cc1ccc(Nc2nc(NCc3ccc(F)cc3)nc(NCC3CCCCC3)n2)cc1 [AP-III-a4, reference compound] | – | – | – | – | – | – | – | – | – | suppressed the inhibitory effect | suppressed the inhibitory effect | –
Plec: recombinant protein, tumor-suppressing protein candidate | 1.95 | 1.86 | 1.54 | 1.33 | 1.28 | 1.06 | 1.16 | 1.10 | 0.91 | – | – | –
Aldoa: recombinant protein, tumor-suppressing protein candidate (protein, UniProt P05064 2-364, looked up) Fructose-bisphosphate …: PHPYPALTPEQKKELSDIAHRIVAPGKGILAADESTGSIAKRLQSIGTENTEENRRFYRQLLLTADDRVNPCIGGVILFHETLYQKADDGRPFPQVIKSKGGVVGIKVDKGVVPLAGTNGETTTQGLDGLSERCAQYKKDGADFAKWRCVLKIGEHTPSALAIMENANVLARYASICQQNGIVPIVEPEILPDGDHDLKRCQYVTEKVLAAVYKALSDHHVYLEGTLLKPNMVTPGHACTQKFSNEEIAMATVTALRRTVPPAVTGVTFLSGGQSEEEASINLNAINKCPLLKPWALTFSYGRALQASALKAWGGKKENLKAAQEEYIKRALANSLACQGKYTPSGQSGAAASESLFISNHAY | 1.87 | 2.10 | 0.96 | 2.72 | 3.06 | 1.39 | 1.75 | 1.97 | 0.90 | – | – | –
TRAIL: an apoptosis-inducing factor applied to EO771 tumor cells (protein, UniProt P50592 1-291, looked up) Tumor necrosis factor ligand …: MPSSGALKDLSFSQHFRMMVICIVLLQVLLQAVSVAVTYMYFTNEMKQLQDNYSKIGLACFSKTDEDFWDSTDGEILNRPCLQVKRQLYQLIEEVTLRTFQDTISTVPEKQLSTPPLPRGGRPQKVAAHITGITRRSNSALIPISKDGKTLGQKIESWESSRKGHSFLNHVLFRNGELVIEQEGLYYIYSQTYFRFQEAEDASKMVSKDKVRTKQLVQYIYKYTSYPDPIVLMKSARNSCWSRDAEYGLYSIYQGGLFELKKNDRIFVSVTNEHLMDLDQEASFFGAFLIN | – | – | – | – | – | – | – | – | – | – | – | increased
Eef1a1: recombinant protein, tumor-suppressing protein candidate (protein, UniProt P10126 2-462, looked up) Elongation factor 1-alpha 1: GKEKTHINIVVIGHVDSGKSTTTGHLIYKCGGIDKRTIEKFEKEAAEMGKGSFKYAWVLDKLKAERERGITIDISLWKFETSKYYVTIIDAPGHRDFIKNMITGTSQADCAVLIVAAGVGEFEAGISKNGQTREHALLAYTLGVKQLIVGVNKMDSTEPPYSQKRYEEIVKEVSTYIKKIGYNPDTVAFVPISGWNGDNMLEPSANMPWFKGWKVTRKDGSASGTTLLEALDCILPPTRPTDKPLRLPLQDVYKIGGIGTVPVGRVETGVLKPGMVVTFAPVNVTTEVKSVEMHHEALSEALPGDNVGFNVKNVSVKDVRRGNVAGDSKNDPPMEAAGFTAQVIILNHPGQISAGYAPVLDCHTAHIACKFAELKEKIDRRSGKKLEDGPKFLKSGDAAIVDMVPGKPMCVESFSDYPPLGRFAVRDMRQTVAVGVIKAVDKKAAGAGKVTKSAQKAQKAK | 0.96 | 0.58 | 1.05 | 1.23 | 0.74 | 1.34 | 0.86 | 0.52 | 0.94 | – | – | –
